Experimental data published in US11505525B2, “Branched discrete PEG constructs” (Quanta BioDesign, Ltd., priority 2011, dated 2022).

How the values were obtained:
implanted tumors = assay: Fused CT/PET imaging of tumor-bearing nude mice with 124I-labelled CC49 Fab′ conjugates; format: in vivo
Procedure: Fused PET/CT images of mice were taken of different antibody conjugates to determine their ability to localize implanted tumors (see Examples below). In particular, CC49 Fab′-S-NEM control was compared to CC49 Fab′-dPEG12-Tris(dPEG24 carboxyl)3, the CC49 Fab′ MoAb modified with one of the disclosed branched dPEGs containing terminal carboxyl groups.
• 1. sterilized, de-pyrogenated glass reaction vessel coated with IODO-GEN™ (SOP 310.0) (5-10 ml serum vials or 13 mm×100 mm test tubes) • 2. sterile, pyrogen-free phosphate buffer, 0.1 M. pH 7.2 • 3. sterile, pyrogen-free phosphate buffered saline • 4. 1 Sephadex G-25M (PD-10 disposable) column with tip • 5. Iodine-124 medium concentration, high activity, sodium iodide for protein iodination in pH=9.5, concentration—100 mCi/ml (IBA Molecular, Dulles VA) • 6. protein to be radiolabeled • 7. 10 sterilized, de-pyrogenated glass test tubes—12×75 mm • 8. 1 sterile Millex-GV 0.22 micron, 13 mm low protein binding filter unit (Millipore—cat. no: SLGV0130S) • 9. microliter pipettes (Eppendorf) • 10. sterilized plastic tips for microliter pipette • 11. parafilm—2 cm.×2 cm. • 12. close calibrator • 13. fume hood • 14. dry and wet radioactive waste containers • 15. disposable gloves • 16. lead shielding and lead containers for reaction vessel and test tubes • 17.2-5 ml. sterile, pyrogen-free syringes with needles • 18.1-3.5 in. spinal needle. Procedure • (Note: the specific activity desired will determine the quantities of protein and Iodine-124 used below.) • I. Place the desired amount of protein into the IODO-GEN™ reaction vessel. • 2. Add the desired amount of iodine-124 into the IODO-GEN™ reaction vessel. • 3. Add 50 μl of 0.1M, 7.2 pH phosphate buffer solution to reaction vessel. • 4. Cover the reaction vessel with parafilm. • 5. Incubate reaction vessel for 20 minutes with occasional swirling. • 6. Place reaction vessel into dose calibrator to determine radioactivity added. • 7. Stop reaction by removing reaction mixture from reaction vessel and placing mixture onto gel bed of Sephadex G-25M column (this separates unbound Iodine-124). • 8. Allow mixture to elute through column. (Note: the iodinated protein is collected from the column after the void volume has been eluted—approximately 2 ml). • 9. Place 1 ml phosphate buffered saline onto gel bed of Sephadex G-25M column and allow to elute through column. • 10. Place 4 ml phosphate buffered saline onto gel bed of Sephadex G-25M column and allow to elute through column. (Note: begin to collect Iodinated protein if you have not done so already). • 11. Collect fractions of 10 drops of eluted iodinated protein—total of 10 fractions. • 12. Assay the 10 fractions using the dose calibrator. • 13. Collect the fractions, which have the highest radioactivity and pool them together in a sterile, pyrogen-free syringe. • 14. Assay syringe of the collected iodinated fractions. • 15. Filter radiolabeled protein using Millex-GV 0.22 micron low protein binding filter unit into a sterile pyrogen-free syringe. • 16. Assay syringe of the filtered radiolabeled protein. • 17. Remove a sample for quality assurance procedures. Description of Animals • a. Female nude mice background, 4-5 weeks in age, were used in this project. For every 7 animals injected with tumors, 4 will actually show tumors in the useful size range. • b. The nude mice will receive 6×10^6 cells subcutaneously in 0.1 mL volumes in order to initiate tumors. • c. Nude mice are received on a routine basis from commercial sources. The mouse colony is routinely surveyed for adventitious agents by serological and histopathological procedures. Upon arrival, the mice are conditioned for up to one week and then moved into an experimental protocol. • d. The anesthetized mice are injected subcutaneously or intradermally into the flank area. For this injection, the mouse is held by a fold in the skin at the back and a 25G needle inserted through the skin. […]

GLP-1 receptor = conditions: cited from earlier work
[1] = mouse, in vivo
Source text: In a different study, PK data was taken on normal athymic mice injected with: mCC49 Fab′-dPEG12-Tris(dPEG12-Tris(m-dPEG11)3)3, mCC49 Fab′-dPEG12-Tris(dPEG24-acid)3, mCC49 Fab′-dPEG12-Tris(m-dPEG24)3, and mCC49 Fab′-dPEG12-Tris(dPEG12-acid)3.
PK data was taken with additional normal female athymic mice as follows: […]

TAG-72 = assay: Competition affinity assay of CC49-Fab′-branched dPEGs; format: binding; conditions: Fab′-NEM defined as 1.0; single aliquots
Procedure: A competition assay was run with a series of CC49-Fab′-dPEGs. In this run, single aliquots of each compound were assayed. The affinity constant of Fab′-NEM is defined as 1.0. From the data, it is that clear that the Relative Affinity Constant, which is a measure of how well the Fab′ binds to its molecular target, is minimally impacted by conjugation to branched dPEG products.
A competition assay was run with a series of CC49-Fab′-branched dPEGs. In this run, single aliquots of each compound were assayed. The affinity constant of Fab′-NEM is defined as 1.0, and the binding constants of the branched dPEG conjugates are as follows: […]

Substance: CC49 Fab′-S-MAL-dPEG12-Tris(-dPEG24-CO2H)3 [CC49 Fab′-dPEG12-Tris(dPEG24 acid)3]
- fused CT/PET image: tumors and background (implanted tumors; 5 hours post injection): good imaging of the tumors with some background evident
- fused CT/PET image: tumors and background (implanted tumors; 24 hours post injection): the tumors were well imaged with continuing diminution of background
- fused CT/PET image: tumors and background (implanted tumors; 48 hours post injection): virtually no background is evident
- fused CT/PET image: tumors and background (implanted tumors; 72 hours post injection): virtually no background is evident

Substance: Lys^27 Exendin-4 linear polymeric PEG 2 kD: "the Lys^27 in the Exendin-4 is modified with linear polymeric PEGs of MW, 1, 2 and 5 kD"; approximately 12 times lower binding
- binding of Lys^27-PEGylated Exendin-4, times lower (GLP-1 receptor): approximately 12 times

Substance: Lys^27 Exendin-4 linear polymeric PEG 0.5 kD: "the Lys^27 in the Exendin-4 is modified with linear polymeric PEGs of MW, 1, 2 and 5 kD"; approximately 37 times lower binding, printed "0.5 kD"
- binding of Lys^27-PEGylated Exendin-4, times lower (GLP-1 receptor): ~37 times

Substance: two Exendin-4 molecules: "two Exendin-4 molecules in a very congested branching format"; "the bis-Exendin-4 without the large polymeric PEG"
- increase in the binding (GLP-1 receptor; two Exendin-4 molecules in branching format): 3.5 times

Substance: m CC49 Fab′-dPEG12-Tris(dPEG12-Tris(m-dPEG11)3)3 [Fab-dPEG-D]
- clearance over time [1]: least rapid clearance

Substance: Lys^27 Exendin-4 linear polymeric PEG 1 kD: "the Lys^27 in the Exendin-4 is modified with linear polymeric PEGs of MW, 1, 2 and 5 kD"; binding almost the same for 1 kD
- binding of Lys^27-PEGylated Exendin-4, times lower (GLP-1 receptor): almost the same

Substance: 20 kD polymer PEG attached with two Exendin-4 molecules: "the 20 kD polymer PEG attached with two Exendin-4 molecules"; binding reduced approximately 67 times by the "shielding effect" of the linear PEG
- reduction of binding relative to bis-Exendin-4 without the polymeric PEG (GLP-1 receptor): approximately 67 times

Substance: CC49 Fab′-S-MAL-dPEG12-Tris(m-dPEG24)3 [CC49 Fab′-dPEG12-Tris(m-dPEG24)3]
- fused CT/PET image: tumors and background (implanted tumors; 24 hours post injection): little background
- fused CT/PET image: tumors and background (implanted tumors; 72 hours post injection): little background

Substance: CC49 Fab′-S-MAL-dPEG12-Tris(-dPEG12-CO2H)3 [CC49 Fab′-dPEG12-Tris(dPEG12 acid)3 (B)]
- Relative Affinity Constant (Ka) (TAG-72): 0.3

Substance: CC49 Fab′-S-MAL-dPEG12-Tris(-dPEG12-Tris(m-dPEG11)3)3
- Relative Affinity Constant (Ka) (TAG-72): 0.4
